Holding throughout (format): in vivo
For assay [1], the system named is animal model with osteoporosis (C57BL/6 mice with removed ovaries). Put plainly: Osteoporosis indices in blood (AP activity, Ca, P, osteocalcin) of ovariectomized mice. Particulars: bacteria 1×10^9 CFU orally for five weeks. How it is done:
(§1) An experiment was performed by using six C57BL/6 mice (female, 21-23 g and 6 weeks old) per group after being acclimated in a laboratory for one week. After the mice were anesthetized with isoflurane, the ovaries were removed therefrom to create an animal model with osteoporosis. From one week after ovarian removal, Lactobacillus plantarum NK3, Bifidobacterium longum NK49, a 1:1 mixture thereof, or a 4:1 mixture thereof (a ratio of LP:BL is 4:1 and the same as below), which is a novel lactic acid bacterium, was orally administered in a daily amount of 1×10^9 CFU for six days a week for five weeks. In addition, 17β-estradiol (PC) was intraperitoneally administered at 10 μg/kg/day to the experimental animals of the positive control group, and the sham group and the experimental group with removed ovaries were orally dosed with physiological saline solution instead of drugs.
On the day after the administration of lactic acid bacteria was completed, the experimental animals were sacrificed, and then blood, thighbone, colon, womb, and liver were separated therefrom so as to measure osteoporosis indices.
Osteocalcin in blood was measured with R&D system ELISA Kit (Minneapolis, Minn., USA); Ca and P were measured with ASAN Ca-Lq Reagents and ASAN Pi-Lq Reagents of Asan Pharmaceutical Co., Ltd, respectively; and alkaline phosphatase (AP) activity was measured with Alkaline phosphatase activity colorimetric assay kit (Sigma, USA).

The subject of assay [2] is SREBP-1c. The assay can be described thus: SREBP-1c expression in liver by qPCR, ovariectomized obesity model. The following applies: liver mRNA, qPCR in comparison with β-actin; mice with removed ovaries; bacteria 1×10^9 CFU orally, PC 10 μg/kg/day intraperitoneally; Nor 1.0 ± 0.1, Con 4.5 ± 0.5. On the procedure:
as §1, with “week as described above in (1) of Example 2.” for “week.”, “isoflurane and” for “isoflurane,”, “therefrom, the resulting mice were raised for six weeks so as” for “therefrom”, “obesity, showing a significant weight gain.” for “osteoporosis.”, “thereof,” for “thereof (a ratio of LP:BL is 4:1 and the same as below),”, “drugs. […] The body weight was measured once a week. An expression of sterol regulatory element-binding transcription factor 1c (SREBP-1c) and peroxisome proliferator-activated receptor gamma coactivator 1-alpha (PGC-1α) was measured by using a quantitative reverse transcription polymerase chain reaction (qPCR). […] The amount of final expressed genes was calculated in comparison with β-actin.” for “drugs.”

Assay [3] has as its system PGC-1α. Put plainly: PGC-1α expression in liver by qPCR, ovariectomized obesity model. The following applies: liver mRNA, qPCR in comparison with β-actin; mice with removed ovaries; bacteria 1×10^9 CFU orally, PC 10 μg/kg/day intraperitoneally; Nor 1.0 ± 0.1, Con 0.6 ± 0.2. On the procedure:
as §1, with “week as described above in (1) of Example 2.” for “week.”, “isoflurane and” for “isoflurane,”, “therefrom, the resulting mice were raised for six weeks so as” for “therefrom”, “obesity, showing a significant weight gain.” for “osteoporosis.”, “thereof,” for “thereof (a ratio of LP:BL is 4:1 and the same as below),”, “drugs. […] The body weight was measured once a week. An expression of sterol regulatory element-binding transcription factor 1c (SREBP-1c) and peroxisome proliferator-activated receptor gamma coactivator 1-alpha (PGC-1α) was measured by using a quantitative reverse transcription polymerase chain reaction (qPCR). […] The amount of final expressed genes was calculated in comparison with β-actin.” for “drugs.”
Background: Quantitative PCR measures a nucleic acid by following its amplification.

As for `C[C@]12CC[C@@H]3c4ccc(O)cc4CC[C@H]3[C@@H]1CC[C@@H]2O` [PC, 17β-estradiol], the Osteocalcin in blood in assay [1] (PC 10 μg/kg/day intraperitoneally, Con 1.85 ± 0.32) is 1.53 ± 0.15 µg/L. Moreover, in assay [1] (PC 10 μg/kg/day intraperitoneally, Con 6.4 ± 0.4), the Ca in blood was 6.2 ± 0.2 mg/dL. The P in blood in assay [1] (PC 10 μg/kg/day intraperitoneally, Con 12.5 ± 1.5) was 12.1 ± 1.1 mg/dL. Also, the “AP (alkaline phosphatase activity in blood)” value in assay [1] (PC 17β-estradiol 10 μg/kg/day intraperitoneally, Con 282.2 ± 10.3) is listed as 220.6 ± 10.3 IU/L. The same molecule returned an SREBP-1c expression in assay [2] of 2.7 ± 0.3. In assay [3], this molecule came in with a PGC-1α expression of 0.8 ± 0.2.

(Values after patent US20230181657A1, “NOVEL LACTIC ACID BACTERIA AND USE THEREOF” (UNIVERSITY- INDUSTRY COOPERATION GROUP OF KYUNG HEE …, priority 2018, published 2023).)
